These results are taken from patent US11179412B2, “Methods of treating conditions involving elevated inflammatory response” (University of Pittsburgh—Of the Commonwealth System of …, priority 2017, dated 2021).

Counter-ions that a name gives are not always drawn.

The test has as its system STING activation (IFNβ release) in iBMDMs. As to the kind of experiment: IFNβ release ELISA after STING ligand (or LPS) stimulation, iBMDMs. The format is cell-based, mouse. As to conditions: iBMDMs, 3′3′-cGAMP 10 μg/ml, 16 hours, compound 10 μM. Summed up: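 IFNβ released into the medium was quantified by ELISA (mouse or human kit) after iBMDM stimulation with the canonical STING agonist 3′3′-cGAMP or with LPS.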
Background: An ELISA detects its analyte on a solid surface through an enzyme-linked reagent.

With `O=C(c1ccc(Nc2nccc(-c3cc4ccccc4s3)n2)cc1)N1CCC(N2CCCC2)CC1` [IKK-16 (IKK Inhibitor VII)], the “fold increase in IFN-β release” value is 1.16 fold. Still for that read-out and setting: the same measure for `O=C(Nc1cc(C(F)(F)F)cc(C(F)(F)F)c1)c1cc(Cl)ccc1O` [IMD 0354]: 0.86 fold; for `O=C(O)CNC(=O)c1c(O)c2ccccc2n(Cc2ccccc2)c1=O` [IOX2]: 0.44 fold; for `Oc1ccc2ccccc2c1SSc1c(O)ccc2ccccc12` [IPA-3]: 0.35 fold. On the same count and under the same terms, the same measure for `Cc1ccc2nc(NC(=O)CSc3nc4c(c(=O)n3-c3ccccc3)SCC4)sc2c1` [IWP-2]: 3.84 fold; for `C=CC(=O)N1CCC[C@@H](n2nc(-c3ccc(Oc4ccccc4)cc3)c3c(N)ncnc32)C1` [Ibrutinib (PCI-32765), Ibrutinib]: 0.53 fold.

For `C#Cc1cccc(Nc2ncnc3cc4c(cc23)OCCOCCOCCO4)c1` [Icotinib], the “fold increase in IFN-β release” value turned out to be 0.57 fold.

Regarding `CNC(=O)[C@H](Cc1c[nH]c2ccccc12)NC(=O)[C@@H](CC(=O)NO)CC(C)C` [Ilomastat (GM6001, Galardin), Ilomastat], the “fold increase in IFN-β release” value was 1.81 fold. As to `Cc1ccc(NC(=O)c2ccc(CN3CCN(C)CC3)cc2)cc1Nc1nccc(-c2cccnc2)n1` [Imatinib (STI571), Imatinib], the “fold increase in IFN-β release” value is 1.04 fold.

In the case of `CCOC(=O)[C@H](CCc1ccccc1)N[C@@H](C)C(=O)N1C(=O)N(C)C[C@H]1C(=O)O` [Imidapril HCl], the “fold increase in IFN-β release” value is recorded as 3.20 fold. Same read-out and setting: with `NC(=O)c1ccc(I)c([N+](=O)[O-])c1` [Iniparib (BSI-201), Iniparib] the figure was 0.23 fold.

For the compound `CCc1c2c(nc3ccc(OC(=O)N4CCC(N5CCCCC5)CC4)cc13)-c1cc3c(c(=O)n1C2)COC(=O)[C@]3(O)CC` [Irinotecan HCl Trihydrate], where the note is “HCl Trihydrate”, the “fold increase in IFN-β release” value was found to be 0.51 fold. For the compound `CCc1c2c(nc3ccc(OC(=O)N4CCC(N5CCCCC5)CC4)cc13)-c1cc3c(c(=O)n1C2)COC(=O)[C@]3(O)CC` [Irinotecan], the “fold increase in IFN-β release” value was 1.13 fold. As to `CC1=C(/C=C/C(C)=C/C=C/C(C)=C\C(=O)O)C(C)(C)CCC1` [Isotretinoin], the “fold increase in IFN-β release” value was 0.10 fold. On the same count and under the same terms, with `Cc1ccc(C(=O)N(CCCN)[C@@H](c2nc3cc(Cl)ccc3c(=O)n2Cc2ccccc2)C(C)C)cc1` [Ispinesib (SB-715992), Ispinesib] the figure was 2.12 fold; with `CCn1c(=O)c2c(nc(/C=C/c3ccc(OC)c(OC)c3)n2C)n(CC)c1=O` [Istradefylline], 1.90 fold. The same measure, in the same setting: the same measure for `CC(C)(C)c1cc(C(C)(C)C)c(NC(=O)c2c[nH]c3ccccc3c2=O)cc1O` [Ivacaftor (VX-770), Ivacaftor]: 1.27 fold; for `O=C(Nc1ccccc1)N1CCN(c2nc(-c3ccccc3)ns2)CC1` [JNJ-1661010]: 1.03 fold. On to `N#Cc1c(NC(=O)c2cccc3ccccc23)sc2c1CCCC2` [JNK Inhibitor IX], for which the “fold increase in IFN-β release” value came out at 0.53 fold. Still for that read-out and setting: the same measure for `Cc1ccc(NCCCc2ccccc2)c(N)c1` [JSH-23]: 2.80 fold; for `COc1cc(-c2ncn(/C=C\C(=O)OC(C)C)n2)cc(C(F)(F)F)c1` [KPT-185]: 0.59 fold.

For `O=C(/C=C\n1cnc(-c2cc(C(F)(F)F)cc(C(F)(F)F)c2)n1)N1CC(F)(F)C1` [KPT-276], the “fold increase in IFN-β release” value came out at 0.54 fold. On the same count and under the same terms, the same measure for `O=c1cc(-c2cccc3c2Sc2ccccc2S3)oc(N2CCOCC2)c1` [KU-55933 (ATM Kinase Inhibitor)]: 0.33 fold; for `COC(=O)CCSCc1ccc(-c2onc(C)c2NC(=O)OC(C)c2ccccc2Cl)cc1` (stereo not drawn) [Ki16198]: 0.51 fold; for `Cc1noc(-c2ccc(CSCCC(=O)O)cc2)c1NC(=O)OC(C)c1ccccc1Cl` (stereo not drawn) [Ki16425]: 1.41 fold. Same read-out and setting: the same measure for `O=C(c1cn(Cc2cncn2Cc2ccc(Br)cc2)cc1-c1cccc2ccccc12)N1CCOCC1` [LB42708]: 1.35 fold; for `COc1ccccc1-c1cc(Nc2cccc(CS(N)(=O)=O)c2)ncn1` [LDC000067]: 1.43 fold; for `Cc1c(C(=O)Nc2ccc(N3C[C@@H](C)O[C@@H](C)C3)nc2)cccc1-c1ccc(OC(F)(F)F)cc1` [LDE225 (NVP-LDE225, Erismodegib), Erismodegib]: 1.31 fold. Still for that read-out and setting: the same measure for `c1cc(-c2cnn3cc(-c4ccc(N5CCNCC5)cc4)cnc23)c2cccnc2c1` [LDN-212854]: 0.33 fold. On to `C[C@H](NC(=O)[C@@H](O)c1cc(F)cc(F)c1)C(=O)N[C@@H]1C(=O)N(C)c2ccccc2-c2ccccc21` [LY411575], for which the “fold increase in IFN-β release” value amounted to 0.26 fold. Still for that read-out and setting: with `Cc1cccc(-c2nn3c(c2-c2ccnc4ccc(C(N)=O)cc24)CCC3)n1` [LY2157299] the figure was 2.50 fold. Same read-out and setting: the same measure for `CC(C)(C)Cn1c(N)nc2ccc(-c3[nH]c(C(C)(C)C)nc3-c3ccc(F)cc3)nc21` [LY2228820]: 5.15 fold; for `Cc1cnc(NC(=O)Nc2cc(Br)c(C)cc2OC[C@@H]2CNCCO2)cn1` [LY2603618]: 1.08 fold; for `Cc1cc(Nc2cc(CN3CCOCC3)c3nc(C)c(Cc4ccc(Cl)cc4F)n3n2)n[nH]1` [LY2784544]: 2.09 fold.

In the case of `CC(CCc1ccccc1)NCC(O)c1ccc(O)c(C(N)=O)c1` (stereo not drawn) [Labetalol HCl], the “fold increase in IFN-β release” value was determined as 2.96 fold. On the same count and under the same terms, with `O=C(C[S+]([O-])Cc1ccco1)NC/C=C\COc1cc(CN2CCCCC2)ccn1` (stereo not drawn) [Lafutidine] the figure was 2.85 fold; with `Nc1cccc2c1CN(C1CCC(=O)NC1=O)C2=O` (stereo not drawn) [Lenalidomide (CC-5013), Lenalidomide], 1.09 fold; with `N#Cc1ccc(C(c2ccc(C#N)cc2)n2cncn2)cc1` [Letrozole], 0.61 fold. Same read-out and setting: the same measure for `CCN1CCC[C@H]1CNC(=O)c1cc(S(N)(=O)=O)ccc1OC` [Levosulpiride]: 1.91 fold.

On to `CCN(CC)CC(=O)Nc1c(C)cccc1C` [Lidocaine], for which the “3′3′-cGAMP-induced IFNβ release” value is “promoted” and the “fold increase in IFN-β release” value was found to be 9.58 fold.

On to `CC#CCn1c(N2CCC[C@@H](N)C2)nc2c1c(=O)n(Cc1nc(C)c3ccccc3n1)c(=O)n2C` [Linagliptin], for which the “fold increase in IFN-β release” value is 2.07 fold. The same measure, in the same setting: the same measure for `Nc1nc(OCc2cc(Br)cs2)c2[nH]cnc2n1` [Lomeguatrib]: 1.27 fold; for `CCOC(=O)N1CCC(=C2c3ccc(Cl)cc3CCc3cccnc32)CC1` [Loratadine]: 3.65 fold.

Regarding `CCCCc1nc(Cl)c(CO)n1Cc1ccc(-c2ccccc2-c2nn[nH]n2)cc1` [Losartan Potassium (DuP 753), Losartan Potassium], the “fold increase in IFN-β release” value amounted to 1.35 fold. On the same count and under the same terms, with `Cc1c(F)cc(C(=O)NC2CC2)cc1-c1ccc(C(=O)NCC(C)(C)C)cn1` [Losmapimod (GW856553X), Losmapimod] the figure was 1.20 fold; with `CC[C@H](C)C(=O)O[C@H]1C[C@@H](C)C=C2C=C[C@H](C)[C@H](CC[C@@H]3C[C@@H](O)CC(=O)O3)[C@H]21` [Lovastatin], 1.22 fold; with `CC(C)CCNC(=O)[C@H](CC(C)C)NC(=O)[C@H]1O[C@@H]1C(=O)O` [Loxistatin Acid (E-64C), Loxistatin Acid], 0.70 fold. Same read-out and setting: with `C=CCn1c(=O)c2cnc(Nc3ccc(N4CCN(C)CC4)cc3)nc2n1-c1cccc(C(C)(C)O)n1` [MK-1775] the figure was 4.54 fold. On the same count and under the same terms, with `Cl.Cl.NC1(c2ccc(-c3nc4ccn5c(=O)[nH]nc5c4cc3-c3ccccc3)cc2)CCC1` [MK-2206 2HCl] the figure was 1.02 fold; with `C[C@](O)(COc1ccc(C#N)cc1)C(=O)Nc1ccc(C#N)c(C(F)(F)F)c1` [MK-2866 (GTx-024)], 1.47 fold; with `O=C(O)Cn1nnc(-c2cc(N3CCC(Oc4cc(F)ccc4Br)CC3)no2)n1` [MK-8245], 0.42 fold. Regarding `COc1ccc(CNCc2cccc3ccccc23)cc1.Cl` [ML133 HCl], the “fold increase in IFN-β release” value is on record as 0.59 fold. On the same count and under the same terms, with `CCCC(=O)Nc1cccc(NC(=O)c2ccccc2Br)c1` [ML161] the figure was 0.95 fold; with `Cc1cnc(-c2ccccc2C(C)C)nc1NCc1ccc(-n2ccnn2)cc1` [ML323], 0.43 fold.

Turning to `COc1ccc(-c2cnc3c(-c4cccc5ncccc45)cnn3c2)cc1` [ML347], the “fold increase in IFN-β release” value was found to be 1.95 fold.

With `CC(C)C[C@H](NC(=O)CNC(=O)c1cc(Cl)ccc1Cl)B(O)O` [MLN2238], the “fold increase in IFN-β release” value is on record as 4.76 fold.

With `O=C(O)c1ccc(Nc2ncc3c(n2)-c2ccc(Cl)cc2C(c2c(F)cccc2F)=NC3)cc1` [MLN8054], the “fold increase in IFN-β release” value turned out to be 0.77 fold. The same measure, in the same setting: with `CCC(CC)(NC(=O)C(C)C)C(=O)N[C@@H](CCCN=C(N)N)C(=O)NC1(C(=O)NC(c2ccc(F)cc2)c2ccc(F)cc2)CCCC1` [MM-102] the figure was 2.32 fold; with `S=C=Nc1cccc(NC(=S)NCCCCNC(=S)Nc2cccc(N=C=S)c2)c1` [MRS 2578], 1.31 fold; with `COc1cc(-n2c(=S)[nH]c3ccccc3c2=O)c(Cl)cc1Cl` [Mdivi-1], 2.10 fold. The same measure, in the same setting: with `CC12CC3CC(C)(C1)CC(N)(C3)C2` [Memantine HCl] the figure was 2.60 fold; with `CN(Cc1cnc2nc(N)nc(N)c2n1)c1ccc(C(=O)N[C@@H](CCC(=O)O)C(=O)O)cc1` [Methotrexate], 0.68 fold.
